System: T cell clone HER500.23c21
Test: HLA-DR restriction: blocking anti-MHC class II antibodies in HERp270-284 stimulation of HER500.23c21 (IFNγ ELISA)
Format: cell-based, human
Conditions: antibody blocking with anti-HLA-DR and anti-HLA-DP/-DQ
Protocol: FIG. 3. HLA-DR Restriction. Autologous EBV-LcL at 2×10^5 cells/mL and HERp270-284 was used to stimulate the T cell clone HER500.23c21 (1×10^5 cells/well), with and without the addition of blocking anti-MHC class II antibodies. Anti-HLA-DR ♦ and anti-HLA-DQ/anti-HLA-DP ▪ were titrated at the concentrations shown in cRPMI+10% FBS. Wells also contained EBV-LcLs, HER500.23c21T cell clone and peptide (1 μg/mL). Assay was incubated for 48 hours at 37° C. with 5% CO2. Supernatants were harvested and frozen at −20° C. and at a later date, analyzed for IFNγ production using ELISA. Multiple experiments were performed, mean triplicate values for one representative experiment is shown.
HLA-DR Restriction and Promiscuity. To determine HLA-DR restriction of the T cell epitope HERp270-284, anti-HLA-DR mAb L243, HLA-DQ mAb 1a3 or HLA-DP mAb B7/21 (20-1.25 μg/mL) were cultured with T cell clone HER.23c21, peptide HERp270-284 and autologous EBV-LcL in cRPMI+10% FBS media. Supernatants were harvested after 48 hours and tested for IL-2 and IFNγ production. […]
In order to determine which HLA molecules were responsible for presenting HERp270-284 to HER500.23c21, HLA-blocking antibodies were used to inhibit presentation and T cell activation. […] T cell stimulation was determined by IFNγ production.

ALVTYNTDTFESMPN (HER-2/Neu peptide 270-284, HER500 peptide #63, HERp270-284, HER-2/Neu epitope 270-284, residues 3-17 of SEQ ID NO1) [Peptide 63]
HLA restriction of HER500.23c21 recognition: HLA-DR restricted

From patent publication US8263757B2, “Promiscuous HER-2/Neu CD4 T cell epitopes” (Dendreon Corporation, priority 2006, dated 2012)
